The values below come from ChEMBL document CHEMBL5608173, “Discovery of novel natural-product-derived mutant isocitrate dehydrogenases 1 inhibitors: Structure-based virtual screening, biological evaluation and structure-activity relationship study” (Eur J Med Chem, 2024).

Activity calls are given as the source filed them. The rule behind the calls is not given here.

The test system of data set [1] is Isocitrate dehydrogenase [NADP] cytoplasmic (Homo sapiens), O75874 [R132C]. Kind of data set: Inhibition of recombinant human IDH1 R132C mutant extracted from Escherichia coli BL21 (DE3) cells using alpha-ketoglutarate as substrate at 2 uM incubated for 60 mins in presence of NADPH by absorbance based assay relative to control.
Chain of Isocitrate dehydrogenase [NADP] cytoplasmic (Homo sapiens), O75874 [R132C] (O75874 whole entry R132C): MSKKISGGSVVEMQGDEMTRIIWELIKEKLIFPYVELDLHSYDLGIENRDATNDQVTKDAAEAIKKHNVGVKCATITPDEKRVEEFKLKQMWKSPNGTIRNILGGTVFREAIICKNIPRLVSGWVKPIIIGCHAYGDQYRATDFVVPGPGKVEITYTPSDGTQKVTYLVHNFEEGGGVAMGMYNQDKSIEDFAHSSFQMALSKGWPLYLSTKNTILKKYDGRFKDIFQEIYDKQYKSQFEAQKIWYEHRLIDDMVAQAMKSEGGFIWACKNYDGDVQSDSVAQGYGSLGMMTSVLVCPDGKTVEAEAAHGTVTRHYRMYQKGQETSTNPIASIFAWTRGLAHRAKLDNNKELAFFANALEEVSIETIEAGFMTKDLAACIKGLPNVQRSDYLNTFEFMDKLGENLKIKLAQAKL
Another data set deals with L02. Kind of data set: Cytotoxicity against human L02 cells assessed as inhibition of cell growth at 50 uM. Particulars: l02, 50 µM. It is filed as toxicity, cell-based.
Data set [2] deals with Isocitrate dehydrogenase [NADP] cytoplasmic (Homo sapiens), O75874 [R132C]. Kind of data set: Inhibition of recombinant human IDH1 R132C mutant extracted from Escherichia coli BL21 (DE3) cells using alpha-ketoglutarate as substrate at 0.2 uM incubated for 60 mins in presence of NADPH by absorbance based assay relative to control.
Data set [3] has as its system Isocitrate dehydrogenase [NADP] cytoplasmic (Homo sapiens), O75874 [R132H]. Kind of data set: Inhibition of recombinant human IDH1 R132H mutant extracted from Escherichia coli BL21 (DE3) cells using alpha-ketoglutarate as substrate at 0.2 uM incubated for 60 mins in presence of NADPH by absorbance based assay relative to control.
Data set [4] shares this test system. Kind of data set: Inhibition of recombinant human IDH1 R132H mutant extracted from Escherichia coli BL21 (DE3) cells using alpha-ketoglutarate as substrate at 2 uM incubated for 60 mins in presence of NADPH by absorbance based assay relative to control.
In data set [5] the test system is HT-1080. Nature of the data set: Antiproliferative activity against human HT-1080 cells harboring IDH1 R132C mutant assessed as reduction in cell viability incubated for 72 hrs by MTT assay. It counts as functional. A general note: Tetrazolium assays rely on reduction of a dye to a coloured formazan, in cell work by metabolically active cells.
For data set [6], the system named is HT-1080. Nature of the data set: Antiproliferative activity against human HT-1080 cells harboring IDH1 R132C mutant assessed as reduction in cell viability at 10 uM incubated for 72 hrs by MTT assay. It is filed as functional, cell-based.
For data set [7], the target named is Isocitrate dehydrogenase [NADP] cytoplasmic (Homo sapiens, UniProt O75874). Kind of data set: Inhibition of recombinant human wildtype IDH1 extracted from Escherichia coli BL21 (DE3) cells using alpha-ketoglutarate as substrate incubated for 60 mins in presence of NADPH by absorbance based assay.
Chain of Isocitrate dehydrogenase [NADP] cytoplasmic (O75874 whole entry): as the sequence (O75874 whole entry R132C) above, with C132R counted along it
For data set [8], the system named is Isocitrate dehydrogenase [NADP] cytoplasmic (Homo sapiens), O75874 [R132H]. Nature of the data set: Inhibition of IDH1 R132H mutant in human U-87 MG cells assessed as reduction in 2-HG level at 10 uM incubated for 48 hrs in presence of NAD+ by resazurin fluorescence dye based Sigma MAK320-1 assay kit analysis relative to control. It is filed as cell-based. (In general: Alamar Blue is a resazurin reagent that responds to reducing activity.)
Chain of Isocitrate dehydrogenase [NADP] cytoplasmic (Homo sapiens), O75874 [R132H] (O75874 whole entry R132H): as the sequence (O75874 whole entry R132C) above, with C132H counted along it

Data set [9] relates to U-87 MG. Kind of data set: Antiproliferative activity against human U-87 MG cells harboring IDH1 R132H mutant assessed as reduction in cell viability incubated for 72 hrs by MTT assay. It is filed as functional, U-87MG ATCC.
For data set [10], the system named is U-87 MG. Kind of data set: Antiproliferative activity against human U-87 MG cells assessed as reduction in cell viability incubated for 72 hrs by MTT assay. It is filed as functional, U-87MG ATCC.

As for `COc1cc(O)c(-c2cc(-c3ccc(O)cc3)nc(C)n2)cc1CC=C(C)C`, the inhibition in [1] turned out to be 67.2%; in [2], 12.5%; in [3], 13.6%; in [4], 49.1%. For the same compound, the Activity result with L02 is reported as “Toxic”.
As for `COc1cc(O)c(-c2cc(-c3ccc(O)cc3)nc(-c3ccncc3)n2)cc1CC=C(C)C`, the GC50 with HT-1080 [5] is 6 µM. The inhibition in data set [1] is 68.1%; in data set [2], 28.2%; in data set [3], 9.7%; in data set [4], 56.7%. In addition, in the data set with HT-1080 [6], the outcome was Active. Besides, in the data set on L02, the Activity result is listed as “Toxic”.
With `COc1cc(O)c(-c2cc(-c3ccc(O)cc3)nc(N3CCCCC3)n2)cc1CC=C(C)C`, the inhibition turned out to be 89.7% in data set [1], 11.8% in data set [2], 9.4% in data set [3] and 93.6% in data set [4].
The like results for `COc1cc(OC)c(-c2cc(-c3ccc(O)cc3)nc(-c3ncccn3)n2)cc1CC=C(C)C` were, in that order, 81.2%, 11%, 33.4% and 91.2%.
`COc1cc(O)c(-c2cc(-c3ccc(O)cc3)[nH]n2)cc1CC=C(C)C`: the inhibition in data set [1] was found to be 29.1%; in data set [2], 14.2%; in [4], 17.5%. Moreover, the inhibition entry in data set [3] was “inactive”.
As to `COc1cc(O)c(-c2cc(-c3ccc(O)cc3)nc(-c3nccs3)n2)cc1CC=C(C)C`, the inhibition in [1] was 56.3%; in data set [3] it was 11.1%; in [4], 61.1%. In addition, the inhibition entry in data set [2] is “inactive”.
Take `O=C(/C=C/c1ccc(O)cc1)OC[C@H]1O[C@@H](Oc2c(-c3ccc(O)cc3)oc3cc(O)cc(O)c3c2=O)[C@H](O)[C@@H](O)[C@@H]1O` [TILIROSIDE]: in data set [7], the IC50 is above 20 µM. Moreover, the figures for the inhibition in data set [8] and in data set [4] were below 10% and 58.1%, respectively.
As to `COCOc1ccc(/C=C/C(=O)c2cc(CC=C(C)C)c(OC)cc2OC)cc1`, the inhibition result in [1], in data set [2], in data set [3] and in [4] was “inactive” each time.
For `COc1cc(O)c(-c2cc(-c3ccc(O)cc3)nc(N3CCN(c4ncccn4)CC3)n2)cc1CC=C(C)C`, the results for the inhibition in data set [1], in data set [2] and in data set [4] were 32.5%, 10.4% and 37.4%, respectively. Besides, the inhibition entry in [3] was “inactive”.
Taken in the same sequence, the figures for `COC(=O)N1CCN(c2nc(-c3ccc(O)cc3)cc(-c3cc(CC=C(C)C)c(OC)cc3O)n2)CC1` were 80.1%, 24.6%, 75.4% and 21.1%.
The like results for `COc1cc(O)c(-c2cc(-c3ccc(O)cc3)nc(-c3cnccn3)n2)cc1CC=C(C)C` were, in that order, 67.3%, 24.5%, 81.8% and 17.2%.
As to `COc1cc(OC)c(C(=O)/C=C/c2ccc(O)cc2)cc1CC=C(C)C`, the inhibition result in [1], in data set [2], in data set [3] and in data set [4] was “inactive” each time.
As to `COc1cc(O)c(-c2cc(-c3ccc(O)cc3)nc(N)n2)cc1CC=C(C)C`, the inhibition was found to be 47.5% in [1], 8.9% in data set [2], 11.2% in data set [3] and 30.7% in data set [4].
The like results for `COc1cc(O)c(-c2cc(-c3ccc(O)cc3)nc(C3CCCO3)n2)cc1CC=C(C)C` (configuration not stated) were, in that order, 70.4%, 13.4%, 14.7% and 60.1%.
`COc1cc(O)c(-c2cc(-c3ccc(O)cc3)ncn2)cc1CC=C(C)C`: the inhibition in [1] was found to be 58.6%; in data set [2], 17.8%; in [3], 13.4%; in [4], 47.2%. The Activity result with L02 is on record as “Toxic”.
As for `COCOc1ccc(/C=C/C(=O)c2cc(CC=C(C)C)c(OC)cc2O)cc1`, the inhibition entry in [1], in data set [2], in data set [3] and in data set [4] was “inactive” each time.
Take `CC(Cc1ccc(O)c(O)c1)C(C)Cc1ccc(O)c(O)c1` (configuration not stated) [NORDIHYDROGUAIARETIC ACID]: in data set [7], the IC50 was above 20 µM. Moreover, the inhibition in data set [8] is below 10%; in data set [4] it was 51.2%.
In the case of `COc1cc(O)c(-c2cc(-c3ccc(O)cc3)nc(C(C)(C)C)n2)cc1CC=C(C)C`, the inhibition in data set [1] amounted to 53.1%; in [2], 14.7%; in data set [3], 13.5%; in data set [4], 60.4%.
Taken in the same sequence, the figures for `COc1cc(O)c(-c2cc(-c3ccc(O)cc3)nc(-c3ccncc3Cl)n2)cc1CC=C(C)C` were 74.1%, 14.9%, 10.5% and 95.1%.
Taken in the same sequence, the figures for `COc1cc(O)c(-c2cc(-c3ccc(O)cc3)nc(-c3ccccc3)n2)cc1CC=C(C)C` were 96.4%, 37.7%, 27% and 88.5%.
The like results for `COc1cc(O)c(-c2cc(-c3ccc(O)cc3)nc(N3CCCC3)n2)cc1CC=C(C)C` were, in that order, 84.3%, 30.9%, 5% and 70.2%.
With `CCCCc1nc(-c2ccc(O)cc2)cc(-c2cc(CC=C(C)C)c(OC)cc2O)n1`, the inhibition in data set [1] came to 41.2%; in data set [2] it was 10.3%; in data set [3] it was 7.6%; in data set [4], 51.6%.
`COc1cc(O)c(-c2cc(-c3ccc(O)cc3)nc(-c3ccccn3)n2)cc1CC=C(C)C`: the values for the GC50 in the data set with U-87 MG [9], in the data set with HT-1080 [5] and with U-87 MG [10] were above 20 µM, 0.85 µM and above 20 µM, respectively. For the same compound, the inhibition in [1] amounted to 76.8%; in data set [2], 22.7%; in [3], 33.1%; in data set [4] it was 74%. The outcome in the data set with HT-1080 [6] was Active. Besides, the Activity entry in the data set with L02 is “Toxic”.
Consider `COc1cc(O)c(-c2cc(-c3ccc(O)cc3)nc(N3CCOCC3)n2)cc1CC=C(C)C`, for which the inhibition was 94.6% in [1], 24.1% in data set [2], 13.8% in data set [3] and 82.1% in data set [4].
Regarding `COc1cc(O)c(-c2cc(-c3ccc(O)cc3)nc(-c3nn(Cc4ccccc4F)c4ncccc34)n2)cc1CC=C(C)C`, the inhibition is 81.9% in [1], 40.1% in [2], 30.5% in data set [3] and 89.4% in data set [4].
Regarding `COc1ccc(-c2cc(-c3cc(CC=C(C)C)c(OC)cc3OC)nc(-c3ncccn3)n2)cc1`, the inhibition in data set [1] came to 92.4%; in [2], 24.7%; in data set [3] it was 12.1%; in data set [4] it was 87.3%. Moreover, the Activity entry with L02 is reported as “Toxic”.
The like results for `COc1cc(O)c(-c2cc(-c3ccc(O)cc3)nc(-c3cccnc3)n2)cc1CC=C(C)C` were, in that order, 57.9%, 20.3%, 17.7%, 48.3% and “Toxic”.
As to `COc1cc(O)c(-c2cc(-c3ccc(O)cc3)nc(-c3ncccn3)n2)cc1CC=C(C)C`, the inhibition in data set [1] is above 100%; in [2], 14.6%; in [3] it was 41.3%; in [4], above 100%.
Consider `COc1cc(O)c(-c2cc(-c3ccc(O)cc3)nc(N3CCN(C(C)=O)CC3)n2)cc1CC=C(C)C`, for which the inhibition was found to be 69.4% in [1], 12.8% in [2], 34.7% in data set [3] and 61.2% in data set [4].
Turning to `COc1cc(O)c(C(=O)/C=C/c2ccc(O)cc2)cc1CC=C(C)C`, the IC50 in data set [7] is above 20 µM. In addition, the inhibition in [1] stood at 46.3%; in data set [8], 35.8%; in [3], 14.9%; in data set [4], 54%. For the same compound, in [2], the inhibition result was “inactive”.

In general, inhibition refers to the change of the read-out against control, counted positive when it falls. The term IC50 denotes the concentration that gives 50% inhibition.
